# Measured values reported in BindingDB's records for doi:10.1021/jm00124a025 (Smith Kline & French Laboratories, 1989).
# Biological target: Vasopressin V2 receptor (Canis lupus familiaris)
# Test: Binding affinity of compound towards Vasopressin receptor by binding [3H]LVP to dog renal medullary preparation.
row,Ki [nM],SMILES
1,0.7,"CCOc1ccc(C[C@@H]2NC(=O)CC3(CCC(C)CC3)SSC[C@H](C(=O)N[C@@H](CCCN=C(N)N)C(=O)N[C@@H](CCCN=C(N)N)C(N)=O)NC(=O)[C@H](CC(N)=O)NC(=O)[C@H](C(C)C)NC(=O)[C@H](Cc3ccccc3)NC2=O)cc1 (some centres not stated) [19-Benzyl-13-carbamoylmethyl-22-(4-ethoxy-benzyl)-16-isopropyl-3-methyl-12,15,18,21,24-pentaoxo-7,8-dithia-11,14,17,20,23-pentaaza-spiro[5.19]pentacosane-10-carboxylic acid [1-(1-carbamoyl-4-guanidino-butylcarbamoyl)-4-guanidino-butyl]-amide]"
2,0.5,"CCOc1ccc(C[C@@H]2NC(=O)CC3(CCCCC3)SSC[C@H](C(=O)N[C@@H](CCCN=C(N)N)C(=O)N[C@@H](CCCN=C(N)N)C(N)=O)NC(=O)[C@@H](CC(N)=O)NC(=O)[C@H](C(C)C)NC(=O)[C@@H](Cc3ccccc3)NC2=O)cc1 [19-Benzyl-13-carbamoylmethyl-22-(4-ethoxy-benzyl)-16-isopropyl-12,15,18,21,24-pentaoxo-7,8-dithia-11,14,17,20,23-pentaaza-spiro[5.19]pentacosane-10-carboxylic acid [1-(1-carbamoyl-4-guanidino-butylcarbamoyl)-4-guanidino-butyl]-amide]"
